According to patent US5527832A, “Antiinflammatory and analgesic transdermal gel” (priority 1994, dated 1996):

Experiments:
[1] = postdose, oral administration to rats; cited from earlier work
[2] = Gastric ulcer formation (Experiment 4); format: in vivo, male Sprague-Dawley rats; details: 10 mg/kg
Procedure: Male Sprague-Dawley rats weighing around 200 g were used as the test animals. […] As a reference, the rats of the control group were administrated ketoprofen orally as a suspension in physiological saline at the dose of 10 mg/kg. Six hours after the administration, the rats were sacrificed and ulcer formation in the stomach was scored as follows: 0; normal, 1; reddened mucosa, 2; one to four small ulcer (smaller than 2 mm in diameter). 3; more than four small ulcer or one large ulcer (larger than 2 mm in diameter), 4; more than one large ulcer. The score of two or higher was regarded as ulcer formation.

Compound | Time of maximum concentration of ketoprofen [1] [h] | No. of rat ulcer is produced ([2]; oral, 6 h after administration) | Average ulcer score ([2]; oral, 6 h after administration, score 0-4) | Average ulcer score ([2]; rat, in vivo, po) | No. of rat ulcer is produced ([2]; rat, in vivo, po)
CC(C(=O)O)c1cccc(C(=O)c2ccccc2)c1 (stereo not shown) [ketoprofen] | 0.25 to 0.5 | 6/6 | 2.91 |  | 
CC(C(=O)O)c1ccc(-c2ccccc2)c(F)c1 (stereo not shown) [flurbiprofen] |  |  |  | 2.46 | 5/6
CC(C)Cc1ccc(C(C)C(=O)O)cc1 (stereo not shown) [ibuprofen] |  |  |  | 2.53 | 6/6
